IC50 and PI3K isoform selectivity data for one compound are collected here from patent publication US7691858B2, “Kinase inhibitors and methods of use thereof” (TargeGen, Inc., priority 2006, dated 2010).

In general, IC50 refers to the concentration that gives 50% inhibition. A higher IC50 goes with weaker potency.

SMILES strings stand for the structures.

Assay [1] deals with T1, PI3Kγ (p120γ) (Homo sapiens, UniProt P48736).
T1 construct: purchased Upstate Cell Signaling Solutions / Upstate USA
T1 sequence (P48736 whole entry): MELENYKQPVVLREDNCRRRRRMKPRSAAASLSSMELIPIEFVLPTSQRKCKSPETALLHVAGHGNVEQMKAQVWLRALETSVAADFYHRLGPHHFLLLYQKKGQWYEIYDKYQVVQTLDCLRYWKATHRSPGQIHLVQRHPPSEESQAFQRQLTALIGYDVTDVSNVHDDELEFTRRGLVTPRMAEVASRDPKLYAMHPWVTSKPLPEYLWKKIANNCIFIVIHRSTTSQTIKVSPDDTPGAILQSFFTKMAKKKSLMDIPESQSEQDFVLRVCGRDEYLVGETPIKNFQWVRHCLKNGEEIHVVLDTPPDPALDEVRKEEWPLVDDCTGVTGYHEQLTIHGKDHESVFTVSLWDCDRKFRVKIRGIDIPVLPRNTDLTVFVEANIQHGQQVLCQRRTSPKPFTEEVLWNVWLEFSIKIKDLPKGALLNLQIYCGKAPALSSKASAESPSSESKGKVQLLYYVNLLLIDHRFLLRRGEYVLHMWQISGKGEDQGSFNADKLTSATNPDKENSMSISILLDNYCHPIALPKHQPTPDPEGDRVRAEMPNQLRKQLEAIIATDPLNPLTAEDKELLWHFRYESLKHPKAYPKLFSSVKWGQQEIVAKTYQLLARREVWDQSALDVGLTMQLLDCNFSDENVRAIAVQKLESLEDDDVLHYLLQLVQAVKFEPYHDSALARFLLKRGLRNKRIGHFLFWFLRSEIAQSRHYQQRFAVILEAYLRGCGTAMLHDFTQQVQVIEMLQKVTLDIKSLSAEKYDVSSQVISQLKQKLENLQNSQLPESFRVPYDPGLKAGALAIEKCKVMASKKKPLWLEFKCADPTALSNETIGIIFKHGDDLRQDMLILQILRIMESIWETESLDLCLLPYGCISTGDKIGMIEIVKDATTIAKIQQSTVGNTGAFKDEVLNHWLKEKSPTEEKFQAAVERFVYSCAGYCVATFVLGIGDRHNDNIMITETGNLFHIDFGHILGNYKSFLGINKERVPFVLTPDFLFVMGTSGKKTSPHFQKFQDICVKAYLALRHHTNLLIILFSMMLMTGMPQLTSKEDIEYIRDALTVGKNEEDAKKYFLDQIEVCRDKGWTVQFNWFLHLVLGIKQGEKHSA
The experiment in a line: PI3K luminescence kinase assay (Kinase-Glo), IC50. Conditions: Table 1, mean of triplicate values. It is filed as biochemical. The procedure: The IC50 value for compounds were determined using a luminescence-based kinase assay with recombinant phosphatidylinositol 3-kinase-p120γ (PI3K) obtained from Upstate Cell Signaling Solutions. […] The reaction was initiated by the addition of 10 μL of ATP to a final assay concentration of 3 μM. After the reaction was to proceed for 90 min, 50 μL of Kinase-Glo reagent (Promega) was added to terminate the reaction. This solution was then allowed to proceed for an additional 10 min to maximize the luminescence reaction. […] Two control reactions were also ran: one containing no compound and the second containing neither compound nor the phosphatidylinositol 4,5-bisphosphate substrate. Data from four wells were then averaged and used to determine IC50 values for the test compounds. IC50 values were derived from experimental data using the non-linear curve fitting capabilities of Prism (Version 4; GraphPad Software).

The test system of assay [2] is four isoforms of PI3K. The assay is described as follows: PI3K isoform profiles. Format: biochemical. The method, then:
Identification of PI3K isoform-selective inhibitors.
Kinase assays: For PI3K assays, 40 μL reaction buffer (20 mM Tris, 4 mM MgCl2, 10 mM NaCl, pH 7.4) containing 50 μM D-myo-phosphatidylinositol 4,5-bisphosphate substrate (Echelon Biosciences, Salt Lake City, Utah) and the desired PI3K isoform (Upstate USA, Charlottesville, Va.) were aliquoted to 96 well plates; kinase concentrations were 250-500 ng/well, such that linear kinetics were achieved over 90 min. The compound to be tested was then added as 2.5 μL of a DMSO stock to final concentration range of 100 μM. to 1 nM. Reactions were initiated by addition of 10 μL of ATP to a final concentration of 3 μM, and after 90 min 50 μL of Kinase-Glo reagent (Promega, Madison, Wis.) added to quantify residual ATP levels; luminosity was measured using an Ultra 384 instrument (Tecan, Durham, N.C.). Control reactions omitting either test compound or substrate were also performed. IC50 values were derived from experimental data by non-linear curve fitting (Prism Version 4; GraphPad Software, San Diego, Calif.).

In the case of `Nc1nc(N)c2nc(-c3cccc4[nH]ccc34)cnc2n1` [Compound III, 6-(1H-Indol-4-yl)pteridine-2,4-diamine], the IC50 in assay [1] amounted to 85 nM. Besides, the PI3K isoform selectivity entry in assay [2] is “less selective”.
